Test results reported in article PMC7725003, “Systematically Studying the Optimal Amino Acid Distribution Patterns of the Amphiphilic Structure by Using the Ultrashort Amphiphiles” (Frontiers in Microbiology, 2020).
Where no end group is shown, it is not given here.

Experiments:
[1] = system: E. coli 25922; type: cell-based, Escherichia coli; conditions: 25922, 24 h
In short: (§1)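 Inoculum: mid-log phase, MHB, 0.5–1 × 10^6 CFU mL^–1. Peptides: serial dilution in 0.2% BSA, equal volume. Incubation: 24 h, 37°C. Read-out: A492, MIC at 95% inhibition; MBC >99.9% kill after agar subculture.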

[2] = system: E. coli O78; type: cell-based, Escherichia coli; conditions: O78, 24 h
In short: as §1

[3] = system: E. coli UB1005; type: cell-based, Escherichia coli; conditions: UB1005, 24 h
In short: as §1

[4] = system: S. typhimurium 14028; type: cell-based, Salmonella typhimurium; conditions: 14028, 24 h
In short: as §1

[5] = system: S. typhimurium 7731; type: cell-based, Salmonella typhimurium; conditions: 7731, 24 h
In short: as §1

[6] = system: S. pullorum 7913; type: cell-based, Salmonella pullorum; conditions: 7913, 24 h
In short: as §1

[7] = system: P. aeruginosa 27853; type: cell-based, Pseudomonas aeruginosa; conditions: 27853, 24 h
In short: as §1

[8] = system: Gram-negative bacteria; conditions: for GM, Gram-negative bacteria: geometric mean of MICs (Table 3); for TI, Gram-negative bacteria: therapeutic index TI = MHC/GM MIC
In short: (§2)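 Broth microdilution adapted from NCCLS: mid-log bacteria diluted in MHB to 0.5–1 × 10^6 CFU mL^–1, mixed with peptides serially diluted in 0.2% BSA. After 24 h at 37°C, MIC taken as the lowest concentration inhibiting 95% of growth by absorbance at 492 nm. Assays repeated more than 3 times.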

[9] = system: Gram-positive bacteria; conditions: for GM, Gram-positive bacteria: geometric mean of MICs (Table 3); for TI, Gram-positive bacteria: therapeutic index TI = MHC/GM MIC
In short: as §2

[10] = system: S. aureus 25923; type: cell-based, Staphylococcus aureus; conditions: 25923, 24 h
In short: as §1

[11] = system: S. aureus 29213; type: cell-based, Staphylococcus aureus; conditions: 29213, 24 h
In short: as §1

[12] = system: S. epidermidis 12228; type: cell-based, Staphylococcus epidermidis; conditions: 12228, 24 h
In short: as §1

[13] = system: MRSA 43300; type: cell-based, methicillin-resistant S. aureus; conditions: 43300, 24 h
In short: as §1

[14] = system: B. subtilis 63501; type: cell-based, Bacillus subtilis; conditions: 63501, 24 h
In short: as §1

[15] = system: E. faecalis 29212; type: cell-based, Enterococcus faecalis; conditions: 29212, 24 h
In short: as §1

[16] = system: Listeria monocytogenes CGMCC 1.1075; type: cell-based; conditions: CGMCC 1.1075, 24 h
In short: as §1

[17] = system: all of the tested bacterial strains; test: Geometric mean of MICs, all tested bacterial strains; type: cell-based; conditions: for GM, All: geometric mean of MICs across all tested strains; for TI, All: therapeutic index TI = MHC/GM MIC
In short: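 Mid-log bacteria at 0.5–1 × 10^6 CFU mL^–1 in MHB with peptides serially diluted in 0.2% BSA, 24 h at 37°C. MIC is the lowest concentration giving 95% growth inhibition by A492. MBC is the lowest giving >99.9% kill on agar subculture, and the GM is taken over all strains.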

[18] = system: E. coli ATCC 25922; test: Salt sensitivity assay (MIC); type: cell-based, Escherichia coli; conditions: for MIC, FeCl3: 4 μM FeCl3; for MIC, NH4Cl: 6 μM NH4Cl; for MIC, ZnCl2: 8 μM ZnCl2; for MIC, MgCl2: 1 mM MgCl2; for MIC, CaCl2: 2 mM CaCl2; for MIC, KCl: 4.5 mM KCl; for MIC, NaCl: 150 mM NaCl; for MIC, Control: no added salt, three independent assays
In short: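 The salt sensitivity of peptides was tested against E. coli ATCC 25922 using a modified NCCLS broth microdilution MIC method. Mid-log bacteria were diluted in MHB to 0.5–1 × 10^6 CFU mL^–1 and mixed in equal volumes with peptides serially diluted in 0.2% BSA in 96-well plates. Physiological salt was added where specified, and the assay was done three independent times.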

[19] = system: S. aureus 29213; test: Salt sensitivity assay (MIC); type: cell-based, Staphylococcus aureus; conditions: for MIC, FeCl3: 4 μM FeCl3; for MIC, NH4Cl: 6 μM NH4Cl; for MIC, ZnCl2: 8 μM ZnCl2; for MIC, MgCl2: 1 mM MgCl2; for MIC, CaCl2: 2 mM CaCl2; for MIC, KCl: 4.5 mM KCl; for MIC, NaCl: 150 mM NaCl; for MIC, Control: no added salt, three independent assays
In short: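 MICs determined by broth microdilution in MHB with 0.5–1 × 10^6 CFU/mL, peptides serially diluted in 0.2% BSA, 24 h at 37°C. Medium supplemented with physiological salts (150 mM NaCl, 4.5 mM KCl, 6 μM NH4Cl, 8 μM ZnCl2, 1 mM MgCl2, 2mM CaCl2, 4 μM FeCl3). MIC = lowest concentration inhibiting 95% growth (A492).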

## WWRWWRRRW-NH2 [W1]
[1]
  MBC: 8 µM
  MIC: 4 µM
[2]
  MBC: 8 µM
  MIC: 4 µM
[3]
  MBC: 8 µM
  MIC: 4 µM
[4]
  MBC: 8 µM
  MIC: 4 µM
[5]
  MBC: 8 µM
  MIC: 4 µM
[6]
  MBC: 8 µM
  MIC: 4 µM
[7]
  MBC: 16 µM
  MIC: 8 µM
[8]
  GM, Gram-negative bacteria: 4.67 µM
  TI, Gram-negative bacteria: 13.70
[9]
  GM, Gram-positive bacteria: 2.44 µM
  TI, Gram-positive bacteria: 26.23
[10]
  MBC: 4 µM
  MIC: 2 µM
[11]
  MBC: 4 µM
  MIC: 2 µM
[12]
  MBC: 4 µM
  MIC: 2 µM
[13]
  MBC: 4 µM
  MIC: 2 µM
[14]
  MBC: 2 µM
  MIC: 1 µM
[15]
  MBC: 8 µM
  MIC: 4 µM
[16]
  MBC: 16 µM
  MIC: 8 µM
[17]
  GM, All: 3.51 µM
  TI, All: 18.23
[18]
  MIC, FeCl3: 2 µM
  MIC, NH4Cl: 4 µM
  MIC, ZnCl2: 2 µM
  MIC, MgCl2: 2 µM
  MIC, CaCl2: 2 µM
  MIC, KCl: 4 µM
  MIC, NaCl: 8 µM
  MIC, Control: 4 µM
[19]
  MIC, FeCl3: 2 µM
  MIC, NH4Cl: 2 µM
  MIC, ZnCl2: 2 µM
  MIC, MgCl2: 2 µM
  MIC, CaCl2: 2 µM
  MIC, KCl: 2 µM
  MIC, NaCl: 4 µM
  MIC, Control: 2 µM

## WWWRRRRWW-NH2 [W4]
[1]
  MBC: 8 µM
  MIC: 4 µM
[2]
  MBC: 16 µM
  MIC: 8 µM
[3]
  MBC: 16 µM
  MIC: 8 µM
[4]
  MBC: 16 µM
  MIC: 8 µM
[5]
  MBC: 16 µM
  MIC: 8 µM
[6]
  MBC: 8 µM
  MIC: 4 µM
[7]
  MBC: 16 µM
  MIC: 8 µM
[8]
  GM, Gram-negative bacteria: 5.88 µM
  TI, Gram-negative bacteria: 21.77
[9]
  GM, Gram-positive bacteria: 2.69 µM
  TI, Gram-positive bacteria: 47.58
[10]
  MBC: 4 µM
  MIC: 2 µM
[11]
  MBC: 4 µM
  MIC: 2 µM
[12]
  MBC: 4 µM
  MIC: 2 µM
[13]
  MBC: 4 µM
  MIC: 2 µM
[14]
  MBC: 2 µM
  MIC: 1 µM
[15]
  MBC: 8 µM
  MIC: 4 µM
[16]
  MBC: 32 µM
  MIC: 16 µM
[17]
  GM, All: 4.18 µM
  TI, All: 30.62
[18]
  MIC, FeCl3: 4 µM
  MIC, NH4Cl: 2 µM
  MIC, ZnCl2: 4 µM
  MIC, MgCl2: 16 µM
  MIC, CaCl2: 8 µM
  MIC, KCl: 16 µM
  MIC, NaCl: 16 µM
  MIC, Control: 4 µM
[19]
  MIC, FeCl3: 2 µM
  MIC, NH4Cl: 1 µM
  MIC, ZnCl2: 1 µM
  MIC, MgCl2: 1 µM
  MIC, CaCl2: 2 µM
  MIC, KCl: 1 µM
  MIC, NaCl: 1 µM
  MIC, Control: 2 µM
